Laboratory results as given in paper PMC11974928 (bioRxiv, 2025).

Tested on: GL261 cells
Experiment: Orthotopic GL261 allograft survival
Assay type: in vivo, mouse
Conditions: C57BL/6, 25 mg/kg 3x weekly, compared to vehicle

CCN1CCN(Cc2ccc(Nc3ncc(F)c(-c4cc(F)c5nc(C)n(C(C)C)c5c4)n3)nc2)CC1 [Abemaciclib]
overall survival of glioma-bearing mice: effective
